Where two headings read alike, the source gives them in different places. One block for each molecule: values may come before it.
Experiments:
RIL-175 cells = assay: CXCL10 secretion by RIL-175 cells in vitro (ELISA); format: cell-based, mouse; details: 2μM for 36hr; ELISA; n=6
Description: To determine if CXCL10 was produced by murine HCC cells in response to regorafenib treatment, we next cultured RIL-175 cells with various concentration of regorafenib in vitro and measured the CXCL10 levels by ELISA. […]
treated by regorafenib as standard of care (HCC) (using the DFCI Protocol No.: 13-416 “Collection of Specimens and Clinical Data for Patients with Known or Suspected Solid Tumors”, PI, Dr. Juric, MGH) or in a phase I clinical trial of regorafenib monotherapy in acute myeloid leukemia (AML) patients (ClinicalTrials.gov Identifier: NCT03042689, PI, Hobbs, MGH). Both protocols have been IRB approved, and written consent was obtained from all patients.
Protein analyses. Western blotting was performed using antibodies against Stat1 (D1K9Y), phosphorylated (p)-Stat1 (Tyr701) (D4A7), Stat3 (79D7), p-Stat3 (Ser727) (Cell Signaling Technology, Danvers, MA), and IFN-γ (EPR1108) (Abcam, Cambridge, MA). Multiplexed protein array analysis was performed for protein extracts from whole tumors, using V-PLEX Proinflammatory Panel 1 Mouse Kit, V-PLEX Cytokine Panel 1 Mouse Kit and V-PLEX […] (Meso-Scale Discovery, Rockville, MD). For cell supernatant collection, 1x10^6 of RIL-175 cells were cultured in DMEM medium with 2% FBS and regorafenib was given in a various dose.
Supernatant was collected after 36hr of incubation and multiplexed protein array analysis was done using the same kit above.
Flow cytometry analysis. Tumor tissues were extracted from the mice, weighted and minced with a scalpel. Hank’s buffered salt solution (HBSS) with 1.5mg/ml of collagenase and hyaluronidase was added to the minced tissues and incubated for 30 min at 37°C. After incubation, digested tissues were passed through the 70μm cell strainer and washed with PBS with 2% BSA. After preparation, cells were suspended in 2ml of PBS with 2% BSA, then counted using a cell counting plate (Kova slide) (if the final concentration of cell exceeded 10^7 cells/ml, a dilution factor was applied). One hundred microliters of this suspension were used per subsequent flow cytometry staining. […]

[1] = mouse, in vivo
Description: From the orthotopic HCC and liver damage mouse models described above, blood samples were collected at 1, 4, 7 and 24 hours after once-daily oral administration of 5, 10 and 20 mg/kg regorafenib, respectively, for 5 days. Anti-PD1 antibody was given on days 1 and 4 with dose of 10 mg/kg by intraperitoneal injection. Blood samples were drawn from four to five animals per sampling time point. Regorafenib and its active metabolites M-2, M-4 and M-5 were analyzed in plasma samples using a validated bioanalytical liquid chromatography-tandem mass spectrometry.[25 33] Pharmacokinetic (PK) parameters were derived from the area under the plasma concentration versus time curve (AUC) using a non-compartmental analysis.
In addition, we evaluated PK parameters in HCC-bearing mice after regorafenib administration alone at doses of 5, 10 and 20 mg/kg or in combination with anti-PD1 therapy at the 10 mg/kg regorafenib dose for 5 days to achieve a steady state.

advanced HCC [2] = test system: advanced HCC; design: method as in ref 14 15; details: previously treated patients with advanced HCC; phase I/II trial data; ref 14 15; cited from earlier work
advanced HCC [3] = test system: advanced HCC; design: method as in ref 4 5; details: patients with advanced HCC; ref 4 5; cited from earlier work

Molecule: NS(=O)(=O)c1cccc2c1C(=O)c1cccc(O)c1C2=O [LLL12]
CXCL10 expression in RIL-175 cells (RIL-175 cells): significantly increased

Plasma Tmax [1]: 7 h
Tumor Tmax [1]: 7 h
Plasma AUC ([1]; po, 5 mg/kg): 363 ng·h/mL
Plasma AUCnorm ([1]; po, 5 mg/kg): 0.0749 kg·h/L
Plasma Cmax ([1]; po, 5 mg/kg): 21.7 ng/mL
Plasma Tmax ([1]; po, 5 mg/kg): 7 h
Tumor AUC ([1]; po, 5 mg/kg): 1040 ng·h/mL
Tumor AUCnorm ([1]; po, 5 mg/kg): 0.209 kg·h/L
Tumor Cmax ([1]; po, 5 mg/kg): 52.8 µg/kg
Tumor Tmax ([1]; po, 5 mg/kg): 4 h
Plasma AUC ([1]; po, 10 mg/kg): 663 ng·h/mL
Plasma AUCnorm ([1]; po, 10 mg/kg): 0.0684 kg·h/L
Plasma Cmax ([1]; po, 10 mg/kg): 40.5 ng/mL
Plasma Tmax ([1]; po, 10 mg/kg): 7 h
Tumor AUC ([1]; po, 10 mg/kg): 2100 ng·h/mL
Tumor AUCnorm ([1]; po, 10 mg/kg): 0.210 kg·h/L
Tumor Cmax ([1]; po, 10 mg/kg): 117 µg/kg
Tumor Tmax ([1]; po, 10 mg/kg): 7 h
Plasma AUC ([1]; po, 20 mg/kg): 1480 ng·h/mL
Plasma AUCnorm ([1]; po, 20 mg/kg): 0.0763 kg·h/L
Plasma Cmax ([1]; po, 20 mg/kg): 124 ng/mL
Plasma Tmax ([1]; po, 20 mg/kg): 7 h
Tumor AUC ([1]; po, 20 mg/kg): 3780 ng·h/mL
Tumor AUCnorm ([1]; po, 20 mg/kg): 0.189 kg·h/L
Tumor Cmax ([1]; po, 20 mg/kg): 214 µg/kg
Tumor Tmax ([1]; po, 20 mg/kg): 7 h
Molecule: NC(=O)c1cc(Oc2ccc(NC(=O)Nc3ccc(Cl)c(C(F)(F)F)c3)c(F)c2)ccn1 [M-4]

Molecule: pembrolizumab: anti-PD1 antibody
Responses (advanced HCC [2]): 14%–31%

Molecule: nivolumab: anti-PD1 antibody
Responses (advanced HCC [2]): 14%–31%

Molecule: CNC(=O)c1cc(Oc2ccc(NC(=O)Nc3ccc(Cl)c(C(F)(F)F)c3)cc2)ccn1 [Sorafenib]
OS benefit over placebo (advanced HCC [3]): approximately 3 months

— paper PMC7689089, “Regorafenib combined with PD1 blockade increases CD8 T-cell infiltration by inducing CXCL10 expression in hepatocellular carcinoma” (Journal for Immunotherapy of Cancer, 2020)
